This is an account of results in patent US20120101095A1, “ALKOXY-THIENOPYRIMIDINES AS TGF-BETA RECEPTOR KINASE MODULATORS” (priority 2009, published 2012).

pIC50: −log10 of the molar value. Some results are limits rather than exact numbers.

In the experiment the target is T1, GST-ALK5 (Homo sapiens, UniProt P36897).
T1 sequence (P36897 34-503): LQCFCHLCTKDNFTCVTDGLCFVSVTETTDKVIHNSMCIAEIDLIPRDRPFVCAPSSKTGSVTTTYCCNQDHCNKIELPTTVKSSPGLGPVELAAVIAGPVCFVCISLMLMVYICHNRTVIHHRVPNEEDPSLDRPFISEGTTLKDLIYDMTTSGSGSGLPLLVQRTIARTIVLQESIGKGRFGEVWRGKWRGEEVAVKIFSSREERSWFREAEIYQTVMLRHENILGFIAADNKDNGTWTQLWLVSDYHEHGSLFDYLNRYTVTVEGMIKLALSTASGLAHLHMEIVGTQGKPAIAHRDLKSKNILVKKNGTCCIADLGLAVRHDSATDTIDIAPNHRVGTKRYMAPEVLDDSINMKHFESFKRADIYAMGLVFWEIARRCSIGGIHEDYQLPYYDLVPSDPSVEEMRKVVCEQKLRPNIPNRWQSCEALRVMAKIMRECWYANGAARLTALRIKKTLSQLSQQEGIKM
Briefly: In-vitro (enzyme) kinase assay, 384-well flashplate, GST-SMAD2 substrate. The class given is biochemical. To be noted: 31.2 nM GST-ALK5, 439 nM GST-SMAD2, 3 mM ATP, 30° C., 45 min. The protocol:
In-Vitro (Enzyme) Assay for Determination of the Efficacy of Inhibitors of the Inhibition of TGF-Beta-Mediated Effects
The kinase assay was carried out as 384-well flashplate assay. 31.2 nM of GST-ALK5, 439 nM of GST-SMAD2 and 3 mM of ATP (with 0.3 μCi of ^33P-ATP/well) were incubated in a total volume of 35 μl (20 mM of HEPES, 10 mM of MgCl2, 5 mM of MnCl2, 1 mM of DTT, 0.1% of BSA, pH 7.4) without or with test substance (5-10 concentrations) at 30° C. for 45 min. The reaction was stopped using 25 μl of 200 mM EDTA solution, filtered with suction at room temperature after 30 min, and the wells were washed with 3 times 100 μl of 0.9% NaCl solution. Radioactivity was measured in the TopCount. The IC50 values were calculated using RS1 (Table 1). Above and below, all temperatures were indicated in ° C.
The molecule `NC(=O)c1sc2nc(OC3CCC(O)C3)nc(-c3cccc(Cl)c3)c2c1N` (stereo not shown) [No 64, 5-Amino-4-(3-chloro-phenyl)-2-(3-hydroxy-cyclopentyloxy)-thieno[2,3-d]pyrimidine-6-carboxylic acid amide] gave a pIC50 of 6.30 to 7.00. For `NC(=O)c1sc2nc(OC[C@H]3CCC(=O)N3)nc(-c3cccc(Cl)c3)c2c1N` [No 77, 5-Amino-4-(3-chloro-phenyl)-2-((R)-5-oxo-pyrrolidin-2-ylmethoxy)-thieno[2,3-d]pyrimidine-6-carboxylic acid amide] the value was 6.30 to 7.00. For `NC(=O)c1sc2nc(OCCN3CCOC3=O)nc(-c3cccc(Cl)c3)c2c1N` [No 57, 5-Amino-4-(3-chloro-phenyl)-2-[2-(2-oxo-oxazolidin-3-yl)-ethoxy]-thieno[2,3-d]pyrimidine-6-carboxylic acid amide] the value was over 7.00; for `NC(=O)c1sc2nc(OCCCn3cccn3)nc(-c3cccc(Cl)c3)c2c1N` [No 41, 5-Amino-4-(3-chloro-phenyl)-2-(3-pyrazol-1-yl-propoxy)-thieno[2,3-d]pyrimidine-6-carboxylic acid amide], over 7.00. For `Cc1ccc(-c2nc(O[C@H](C)[C@@H](C)O)nc3sc(C(N)=O)c(N)c23)o1` [No 34, 5-Amino-2-((1R,2R)-2-hydroxy-1-methyl-propoxy)-4-(5-methyl-furan-2-yl)-thieno[2,3-d]pyrimidine-6-carboxylic acid amide] the value was 6.30 to 7.00; for `COc1nc(-c2cccc(C)n2)c2c(N)c(C(N)=O)sc2n1` [No 25, 5-Amino-2-methoxy-4-(6-methyl-pyridin-2-yl)-thieno[2,3-d]pyrimidine-6-carboxylic acid amide], over 7.00; for `COCCOc1nc(-c2cccc(Cl)c2)c2c(N)c(C(N)=O)sc2n1` [No 1, 5-Amino-4-(3-chloro-phenyl)-2-(2-methoxy-ethoxy)-thieno[2,3-d]pyrimidine-6-carboxylic acid amide], 6.30 to 7.00. `NC(=O)c1sc2nc(OC[C@H](O)CO)nc(-c3cccc(Cl)c3)c2c1N` [No 50, 5-Amino-4-(3-chloro-phenyl)-2-((R)-2,3-dihydroxy-propoxy)-thieno[2,3-d]pyrimidine-6-carboxylic acid amide] had a pIC50 of 6.30 to 7.00. In the case of `Cc1ccc(-c2nc(O[C@@H](C)[C@H](C)O)nc3sc(C(N)=O)c(N)c23)o1` [No 36, 5-Amino-2-((1S,2S)-2-hydroxy-1-methyl-propoxy)-4-(5-methyl-furan-2-yl)-thieno[2,3-d]pyrimidine-6-carboxylic acid amide] it was 6.30 to 7.00. In the case of `Cn1cc(COc2nc(-c3cccc(Cl)c3)c3c(N)c(C(N)=O)sc3n2)cn1` [No 44, 5-Amino-4-(3-chloro-phenyl)-2-(1-methyl-1H-pyrazol-4-ylmethoxy)-thieno[2,3-d]pyrimidine-6-carboxylic acid amide] it was over 7.00; in that of `NC(=O)CCCOc1nc(-c2cccc(Cl)c2)c2c(N)c(C(N)=O)sc2n1` [No 69, 5-Amino-2-(3-carbamoyl-propoxy)-4-(3-chloro-phenyl)-thieno[2,3-d]pyrimidine-6-carboxylic acid amide], 6.30 to 7.00. In the case of `NC(=O)c1sc2nc(OCCn3cccn3)nc(-c3cccc(Cl)c3)c2c1N` [No 42, 5-Amino-4-(3-chloro-phenyl)-2-(2-pyrazol-1-yl-ethoxy)-thieno[2,3-d]pyrimidine-6-carboxylic acid amide] it was over 7.00; in that of `COCCOc1nc(-c2cccc(C(F)(F)F)c2)c2c(N)c(C(N)=O)sc2n1` [No 16, 5-Amino-2-(2-methoxy-ethoxy)-4-(3-trifluoromethyl-phenyl)-thieno[2,3-d]pyrimidine-6-carboxylic acid amide], 6.00 to 6.30; in that of `NC(=O)c1sc2nc(OCCO)nc(-c3cccc(Cl)c3)c2c1N` [No 13, 5-Amino-4-(3-chloro-phenyl)-2-(2-hydroxy-ethoxy)-thieno[2,3-d]pyrimidine-6-carboxylic acid amide], 6.30 to 7.00. On to `CC(C)(C)OCCOc1nc(-c2cccc(C(F)(F)F)c2)c2c(N)c(C(N)=O)sc2n1` [No 12, 5-Amino-2-(2-tert-butoxy-ethoxy)-4-(3-trifluoromethyl-phenyl)-thieno[2,3-d]pyrimidine-6-carboxylic acid amide], for which the pIC50 is 6.00 to 6.30. For `COc1nc(-c2ccc(C)s2)c2c(N)c(C(N)=O)sc2n1` [No 23, 5-Amino-2-methoxy-4-(5-methyl-thiophen-2-yl)-thieno[2,3-d]pyrimidine-6-carboxylic acid amide] the value was 6.30 to 7.00.
